Eight compounds from patent US20240025907A1, “QUINAZOLINE PAN-KRas INHIBITORS” (Mirati Therapeutics, Inc., priority 2022, published 2024) can be followed below.

Assay [1] deals with KRas-mediated Phosphorylation of ERK in H460 cells. The assay can be described thus: Cisbio HTRF pERK assay, H460 cells. To be noted: Homo sapiens, NCI-H460, 3 h, H460 cells, 3 hrs compound; read-out: Inhibition (HTRF IC50 nM) of KRas-mediated Phosphorylation of ERK, H460. In kind it is cell-based.
For assay [2], the system named is KRas-mediated Phosphorylation of ERK in AsPC-1 cells. The assay can be described thus: Cisbio HTRF pERK assay, AsPC-1 cells. In kind it is cell-based. To be noted: Homo sapiens, ASPC1, 3 h, 3 hrs compound, read-out: Inhibition (HTRF IC50 nM) of KRas-mediated Phosphorylation of ERK, AsPC-1.
Assay [3] deals with KRas-mediated Phosphorylation of ERK in H2009 cells. The assay can be described thus: Cisbio HTRF pERK assay, H2009 cells. It counts as cell-based. The conditions noted are these: Homo sapiens, NCI-H2009, H2009 cells; read-out: Inhibition (HTRF IC50 nM) of KRas-mediated Phosphorylation of ERK, H2009. (In general: TR-FRET usually uses a lanthanide donor and a delayed reading to cut background.)

For assay [4], the system named is KRas-mediated Phosphorylation of ERK in H727 cells. Briefly: Cisbio HTRF pERK assay, H727 cells. In kind it is cell-based. The conditions noted are these: Homo sapiens, NCI-H727, 3 h, 3 hrs compound, read-out: Inhibition (HTRF IC50 nM) of KRas-mediated Phosphorylation of ERK, H727.
The test system of assay [5] is KRas-mediated Phosphorylation of ERK in HCT116 cells. Briefly: Cisbio HTRF pERK assay, HCT116 cells. It counts as cell-based. The conditions noted are these: Homo sapiens, HCT-116, 3 h, HCT116 cells, 3 hrs compound; read-out: Inhibition (HTRF IC50 nM) of KRas-mediated Phosphorylation of ERK, HCT116.
Assay [6] relates to KRas-mediated Phosphorylation of ERK in A549 cells. The assay can be described thus: Cisbio HTRF pERK assay, A549 cells. To be noted: Homo sapiens, A549, 3 h, A549 cells, 3 hrs compound; read-out: Inhibition (HTRF IC50 nM) of KRas-mediated Phosphorylation of ERK, A549. It counts as cell-based.
Assay [7] deals with KRas-mediated Phosphorylation of ERK in H358 cells. Briefly: Cisbio HTRF pERK assay, H358 cells. It counts as cell-based. The conditions noted are these: Homo sapiens, NCI-H358, 3 h, H358 cells, 3 hrs compound; read-out: Inhibition (HTRF IC50 nM) of KRas-mediated Phosphorylation of ERK, H358.
Assay [8] concerns KRas-mediated Phosphorylation of ERK in PSN1 cells. Briefly: Cisbio HTRF pERK assay, PSN1 cells. In kind it is cell-based. The conditions noted are these: Homo sapiens, PSN1, 3 h, 3 hour compound, read-out: Inhibition (HTRF IC50 nM) of KRas-mediated Phosphorylation of ERK, PSN1. The protocol: Inhibition of KRas Phosphorylation of ERK (HTRF) by Exemplary Compounds of Formula (I) • Cisbio HTRF Advanced pERK Assay Catalog #64AERPEH • Cell: MKN1, PSN1 • Procedure: • Day 1: Seed 6,000 cells/well −25 μl/well in 384-well white solid bottom plate; RPM1_10% FBS.

The target of the next assay is T1, KRas^WT (Homo sapiens, UniProt P01116).
T1 construct: Biotinylated KRas (corresponding to amino acids 1-169, produced at Accelegan Inc.); biotin (biotinylated); purchased Accelegan Inc
T1 sequence (P01116 1-169 isoform P01116-2): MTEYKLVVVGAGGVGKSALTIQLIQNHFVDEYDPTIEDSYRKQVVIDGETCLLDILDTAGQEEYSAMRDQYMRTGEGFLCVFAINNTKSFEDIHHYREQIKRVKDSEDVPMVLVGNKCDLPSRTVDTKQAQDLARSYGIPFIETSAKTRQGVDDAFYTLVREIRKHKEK
Briefly: KRas TR-FRET tracer displacement binding assay, WT. The conditions noted are these: 60-minute incubation. The protocol:
(§1) KRas^WT, KRas^G12A, KRas^G12C, KRas^G12D, KRas^G12R, KRas^G12S, KRas^G12V, KRas^G13D, or KRas^Q61H was used in the assay.
(§2) The ability of a compound to bind to KRas was measured using a TR-FRET displacement assay. Biotinylated KRas (corresponding to amino acids 1-169, produced at Accelegan Inc.) was incubated with custom made Cy5 labelled tracer, terbium streptavidin (Cisbio Inc.) and compound (1% DMSO final) in buffer (50 mM HEPES, pH 7.5, 5 mM MgCl2, 0.005% Tween-20 and 1 mM DTT). After a 60-minute incubation at room temperature, the reaction was measured using a BMG LABTECH CLARIO star Plus via TR-FRET.

Another assay has as its target T2, KRas^G12S (Homo sapiens, UniProt P01116, G12S).
T2 construct: Biotinylated KRas (corresponding to amino acids 1-169, produced at Accelegan Inc.); biotin (biotinylated); purchased Accelegan Inc
Briefly: KRas TR-FRET tracer displacement binding assay, G12S. To be noted: 60-minute incubation. How it is done:
as §1, §2

For another assay, the target named is T3, KRas^G12C (Homo sapiens, UniProt P01116, G12C).
T3 construct: Biotinylated KRas (corresponding to amino acids 1-169, produced at Accelegan Inc.); biotin (biotinylated); purchased Accelegan Inc
T3 sequence (P01116 1-169 isoform P01116-2 G12C): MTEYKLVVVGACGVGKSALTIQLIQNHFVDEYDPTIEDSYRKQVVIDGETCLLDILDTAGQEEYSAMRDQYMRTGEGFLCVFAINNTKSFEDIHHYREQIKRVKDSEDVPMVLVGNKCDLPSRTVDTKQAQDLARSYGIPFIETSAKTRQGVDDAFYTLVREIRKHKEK
The assay can be described thus: KRas TR-FRET tracer displacement binding assay, G12C. To be noted: 60-minute incubation. The protocol: as §1, §2

For the next assay, the target named is T4, KRas^G12V (Homo sapiens, UniProt P01116, G12V).
T4 construct: Biotinylated KRas (corresponding to amino acids 1-169, produced at Accelegan Inc.); biotin (biotinylated); purchased Accelegan Inc
T4 sequence (P01116 1-169 isoform P01116-2 G12V): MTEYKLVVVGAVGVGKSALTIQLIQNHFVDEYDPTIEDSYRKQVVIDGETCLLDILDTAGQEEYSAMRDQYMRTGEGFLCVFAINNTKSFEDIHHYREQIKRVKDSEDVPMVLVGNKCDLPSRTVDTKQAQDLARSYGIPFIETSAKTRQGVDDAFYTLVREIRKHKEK
The assay can be described thus: KRas TR-FRET tracer displacement binding assay, G12V. The conditions noted are these: 60-minute incubation. How it is done:
as §1, §2

For the next assay, the target named is T5, KRas^G12D (Homo sapiens, UniProt P01116, G12D).
T5 construct: Biotinylated KRas (corresponding to amino acids 1-169, produced at Accelegan Inc.); biotin (biotinylated); purchased Accelegan Inc
T5 sequence (P01116 1-169 isoform P01116-2 G12D): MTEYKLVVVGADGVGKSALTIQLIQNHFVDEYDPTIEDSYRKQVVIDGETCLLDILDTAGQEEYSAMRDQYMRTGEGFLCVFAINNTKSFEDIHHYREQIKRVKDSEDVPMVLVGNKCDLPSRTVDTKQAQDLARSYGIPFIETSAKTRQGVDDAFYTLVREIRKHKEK
Briefly: KRas TR-FRET tracer displacement binding assay, G12D. To be noted: 60-minute incubation. The protocol:
as §1, §2

The IC50 is the concentration at which inhibition is half-maximal.

T2 sequence (P01116 1-169 isoform P01116-2 G12S): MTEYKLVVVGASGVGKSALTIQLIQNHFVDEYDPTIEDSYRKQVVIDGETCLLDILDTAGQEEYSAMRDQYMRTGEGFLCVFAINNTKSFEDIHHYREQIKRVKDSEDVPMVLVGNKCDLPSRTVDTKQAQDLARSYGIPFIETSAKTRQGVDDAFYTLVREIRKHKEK

With `CN(c1nc(OC[C@@]23CCCN2C[C@H](F)C3)nc2c(F)c(-c3ccc(F)c4sc(N)c(C#N)c34)c(Cl)cc12)[C@H]1C[C@@H]1F` [Example 202, 2-amino-4-(6-chloro-8-fluoro-4-(((1S,2S)-2-fluorocyclopropyl)(methyl)amino)-2-(((2R,7aS)-2-fluorotetrahydro-1H-pyrrolizin-7a(5H)-yl)methoxy)quinazolin-7-yl)-7-fluorobenzo[b]thiophene-3-carbonitrile], the IC50 in assay [1] came to 145 nM; in assay [2], 200 nM; in assay [3], 24 nM; in assay [4] it was 104 nM; in assay [5], 498 nM; in assay [6] it was 200 nM. Also, the IC50 in assay [7] stood at 63 nM; in assay [8], 3350 nM.
For the compound `CN(C)C(=O)c1cc2n(n1)CCCN(c1nc(OC[C@@]34CCCN3C[C@H](F)C4)nc3c(F)c(-c4ccc(F)c5sc(N)c(C#N)c45)c(C4CC4)cc13)C2` [Example 207, 5-(7-(2-amino-3-cyano-7-fluorobenzo[b]thiophen-4-yl)-6-cyclopropyl-8-fluoro-2-(((2R,7aS)-2-fluorotetrahydro-1H-pyrrolizin-7a(5H)-yl)methoxy)quinazolin-4-yl)-N,N-dimethyl-5,6,7,8-tetrahydro-4H-pyrazolo[1,5-a][1,4]diazepine-2-carboxamide], the IC50 in [1] is 34 nM; at KRas^WT it was under 2 nM; in assay [2], 3 nM; in [4], 11 nM; in assay [5] it was 42 nM; at KRas^G12S, under 2 nM. The IC50 on KRas^G12C is under 2 nM; in [6], 22 nM; in assay [7], 3 nM; on KRas^G12V, under 2 nM; on KRas^G12D, 2 nM; in assay [8], 811 nM.
As for `N#Cc1c(N)sc2c(F)ccc(-c3c(C4CC4)cc4c(N5C[C@H]6CC[C@@H](C5)N6)nc(OC[C@@]56CCCN5C[C@H](F)C6)nc4c3F)c12` [Example 208, 4-(4-((1R,5S)-3,8-diazabicyclo[3.2.1]octan-3-yl)-6-cyclopropyl-8-fluoro-2-(((2R,7aS)-2-fluorotetrahydro-1H-pyrrolizin-7a(5H)-yl)methoxy)quinazolin-7-yl)-2-amino-7-fluorobenzo[b]thiophene-3-carbonitrile], the concentration for half-maximal inhibition (IC50) in assay [1] worked out at 260 nM; at KRas^WT it was 4 nM; in assay [2], 4 nM; in assay [4], 3280 nM; in assay [5], 90 nM; at KRas^G12S, 4 nM. Further, the IC50 on KRas^G12C was 7 nM; in assay [6], 418 nM; in assay [7], 167 nM; on KRas^G12V, 10.4 nM; at KRas^G12D, under 2 nM; in assay [8] it was 2390 nM.
In the case of `N#Cc1c(N)sc2c(F)ccc(-c3c(Cl)cc4c(N5CCCCCC5)nc(OC[C@@]56CCCN5C[C@H](F)C6)nc4c3F)c12` [Example 210, 2-amino-4-(4-(azepan-1-yl)-6-chloro-8-fluoro-2-(((2R,7aS)-2-fluorotetrahydro-1H-pyrrolizin-7a(5H)-yl)methoxy)quinazolin-7-yl)-7-fluorobenzo[b]thiophene-3-carbonitrile], the IC50 in [1] was determined as 25 nM; in assay [2], 21 nM; in assay [3] it was 5 nM; in [4], 22 nM; in assay [5], 54 nM; in [6], 38 nM. In addition, the IC50 in [7] stood at 10 nM; in [8], 1190 nM.
In the case of `N#Cc1c(N)sc2c(F)ccc(-c3c(Cl)cc4c(N5CCCOCC5)nc(OC[C@@]56CCCN5C[C@H](F)C6)nc4c3F)c12` [Example 211, 2-amino-4-(6-chloro-8-fluoro-2-(((2R,7aS)-2-fluorotetrahydro-1H-pyrrolizin-7a(5H)-yl)methoxy)-4-(1,4-oxazepan-4-yl)quinazolin-7-yl)-7-fluorobenzo[b]thiophene-3-carbonitrile], the IC50 in [1] is 13 nM; at KRas^WT, under 2 nM; in assay [2], 22 nM; in assay [4], 12 nM; in assay [5] it was 18 nM; on KRas^G12S it was under 2 nM. Moreover, the IC50 on KRas^G12C is under 2 nM; in assay [6] it was 15 nM; in assay [7], 3 nM; at KRas^G12V, 2 nM; on KRas^G12D it was 3 nM; in assay [8], 1270 nM.
For `N#Cc1c(N)sc2c(F)ccc(-c3c(Cl)cc4c(NC5CS(=O)(=O)C5)nc(OC[C@@]56CCCN5C[C@H](F)C6)nc4c3F)c12` [Example 218, 2-amino-4-(6-chloro-4-((1,1-dioxidothietan-3-yl)amino)-8-fluoro-2-(((2R,7aS)-2-fluorotetrahydro-1H-pyrrolizin-7a(5H)-yl)methoxy)quinazolin-7-yl)-7-fluorobenzo[b]thiophene-3-carbonitrile], the IC50 in assay [1] came out at 365 nM; in assay [2], 1650 nM; in assay [3], 80 nM; in [4], 429 nM; in assay [5], 566 nM; in assay [6], 720 nM. The IC50 in assay [7] turned out to be 57 nM; in [8], 5110 nM.
Consider `N#Cc1c(N)sc2c(F)ccc(-c3c(Cl)cc4c(NCCS(N)(=O)=O)nc(OC[C@@]56CCCN5C[C@H](F)C6)nc4c3F)c12` [Example 201, 2-((7-(2-amino-3-cyano-7-fluorobenzo[b]thiophen-4-yl)-6-chloro-8-fluoro-2-(((2R,7aS)-2-fluorotetrahydro-1H-pyrrolizin-7a(5H)-yl)methoxy)quinazolin-4-yl)amino)ethane-1-sulfonamide], for which the IC50 is 5340 nM in assay [1]; 3 nM at KRas^WT; 4690 nM in assay [2]; over 10000 nM in assay [4]; over 10000 nM in [5]; 2 nM at KRas^G12S. In addition, the IC50 at KRas^G12C was 3 nM; in assay [6], over 10000 nM; in assay [7], 1780 nM; on KRas^G12V, 3 nM; on KRas^G12D it was 3 nM; in assay [8], over 10000 nM.
Turning to `N#Cc1c(N)sc2c(F)ccc(-c3c(Cl)cc4c(N5CCCCC(F)C5)nc(OC[C@@]56CCCN5C[C@H](F)C6)nc4c3F)c12` (stereo partly drawn) [Example 204, 2-amino-4-(6-chloro-8-fluoro-4-(3-fluoroazepan-1-yl)-2-(((2R,7aS)-2-fluorotetrahydro-1H-pyrrolizin-7a(5H)-yl)methoxy)quinazolin-7-yl)-7-fluorobenzo[b]thiophene-3-carbonitrile], the IC50 in [1] was 23 nM; at KRas^WT, 2 nM; in assay [2], 16 nM; in [4], 18 nM; in assay [5], 25 nM; at KRas^G12S, under 2 nM. Moreover, the IC50 on KRas^G12C is 3 nM; in assay [6] it was 34 nM; in assay [7], 6 nM; on KRas^G12V it was 3 nM; on KRas^G12D, 3 nM; in assay [8] it was 1180 nM.
